Results as given in ChEMBL document CHEMBL1129819, “Polysubstituted 2H-pyran-2-ones: A new class of hepatoprotective agents” (1997).

Key:
Format in all cases: functional
Rattus norvegicus [1] = assay: Percent protection against thioacetamide-induced toxicity in rats using glutamate dehydrogenase (GIDH) when peroral administration of compound 6 mg/kg for 7 days; settings: route oral
Rattus norvegicus [2] = organism: Rattus norvegicus; assay: Percent protection against thioacetamide-induced toxicity in rats using acid phosphatase(ACP); set-up: concentration or dose not given beside the values
Rattus norvegicus [3] = assay: Percent protection against thioacetamide-induced toxicity in rats using glutamate pyruvate transaminase (GPT) when peroral administration of compound 6 mg/kg for 7 days; settings: route oral
Rattus norvegicus [4] = assay: Percent protection against thioacetamide-induced toxicity in rats using alkaline phosphatase (ALP) when peroral administration of compound 6 mg/kg for 7 days; settings: route oral
Rattus norvegicus [5] = assay: Percent protection against thioacetamide-induced toxicity in rats using glutamate oxaloacetate transaminase (GOT) when peroral administration of compound 6 mg/kg for 7 days; settings: route oral
Rattus norvegicus [6] = assay: Percent protection against thioacetamide-induced toxicity in rats using acid phosphatase(ACP) at peroral dose of 6 mg/kg for 7 days of compound; settings: route oral
Rattus norvegicus [7] = assay: Percent protection in alcohol-induced model using glutamate pyruvate transaminase(GPT) when peroral administration of compound 6 mg/kg for 7 days; settings: route oral
Rattus norvegicus [8] = assay: Percent protection in alcohol-induced model using acid phosphatase(ACP) when peroral administration of compound 12 mg/kg for 7 days; settings: route oral
Rattus norvegicus [9] = assay: Percent protection in paracetamol-induced model using acid phosphatase(ACP) when peroral administration of compound 6 mg/kg for 7 days; settings: route oral
Rattus norvegicus [10] = assay: Percent protection in alcohol-induced model using acid phosphatase(ACP) at peroral dose of 6 mg/kg for 7 days; settings: route oral
Rattus norvegicus [11] = assay: Percent protection in paracetamol-induced model using alkaline phosphatase(ALP) at peroral dose of 6 mg/kg for 7 days; settings: route oral
Rattus norvegicus [12] = assay: Percent protection in alcohol-induced model using alkaline phosphatase(ALP) when peroral administration of compound 12 mg/kg for 7 days; settings: route oral
Rattus norvegicus [13] = assay: Percent protection in galactosamine-induced model using alkaline phosphatase(ALP) when peroral administration of compound 6 mg/kg for 7 days; settings: route oral
Rattus norvegicus [14] = assay: Percent protection in paracetamol-induced model using glutamate dehydrogenase(GIDH) when peroral administration of compound 6 mg/kg for 7 days; settings: route oral
Rattus norvegicus [15] = assay: Percent protection in paracetamol-induced model using glutamate oxaloacetate transaminase(GOT) when peroral administration of compound 6 mg/kg for 7 days; settings: route oral
Rattus norvegicus [16] = assay: Percent protection in carbon tetrachloride-induced model using glutamate dehydrogenase(GIDH) when peroral administration of compound 6 mg/kg for 7 days; settings: route oral
Rattus norvegicus [17] = assay: Percent protection in alcohol-induced model using alkaline phosphatase(ALP) when peroral administration of compound 6 mg/kg for 7 days; settings: route oral
Rattus norvegicus [18] = assay: Percent protection in alcohol-induced model using glutamate oxaloacetate transaminase(GOT) when peroral administration of compound 12 mg/kg for 7 days; settings: route oral
Rattus norvegicus [19] = assay: Percent protection in galactosamine-induced model using glutamate dehydrogenase(GIDH) when peroral administration of compound 6 mg/kg for 7 days; settings: route oral
Rattus norvegicus [20] = assay: Percent protection in carbon tetrachloride-induced model using glutamate pyruvate transaminase(GPT) when peroral administration of compound 6 mg/kg for 7 days; settings: route oral
Rattus norvegicus [21] = assay: Percent protection in galactosamine-induced model using glutamate oxaloacetate transaminase(GOT) when peroral administration of compound 6 mg/kg for 7 days; settings: route oral
Rattus norvegicus [22] = assay: Percent protection in carbon tetrachloride-induced model using acid phosphatase(ACP) when peroral administration of compound 6 mg/kg for 7 days; settings: route oral
Rattus norvegicus [23] = assay: Percent protection in galactosamine-induced model using glutamate pyruvate transaminase(GPT) when peroral administration of compound 6 mg/kg for 7 days; settings: route oral
Rattus norvegicus [24] = assay: Percent protection in carbon tetrachloride-induced model using glutamate oxaloacetate transaminase(GOT) when peroral administration of compound 6 mg/kg for 7 days; settings: route oral
Rattus norvegicus [25] = assay: Percent protection in carbon tetrachloride-induced model using alkaline phosphatase(ALP) when peroral administration of compound 6 mg/kg for 7 days; settings: route oral
Rattus norvegicus [26] = assay: Percent protection in paracetamol-induced model using glutamate pyruvate transaminase(GPT) when peroral administration of compound 6 mg/kg for 7 days; settings: route oral
Rattus norvegicus [27] = assay: Percent protection in alcohol-induced model using glutamate dehydrogenase(GIDH) when peroral administration of compound 6 mg/kg for 7 days; settings: route oral
Rattus norvegicus [28] = assay: Percent protection in alcohol-induced model using glutamate dehydrogenase(GIDH) when peroral administration of compound 12 mg/kg for 7 days; settings: route oral
Rattus norvegicus [29] = assay: Percent protection in alcohol-induced model using glutamate pyruvate transaminase(GPT) at peroral dose of 12 mg/kg for 7 days; settings: route oral
Rattus norvegicus [30] = assay: Percent protection in alcohol-induced model using glutamate oxaloacetate transaminase(GOT) when peroral administration of compound 6 mg/kg for 7 days; settings: route oral
Rattus norvegicus [31] = assay: Percent protection in galactosamine-induced model using acid phosphatase(ACP)when peroral administration of compound 6 mg/kg for 7 days; settings: route oral

## CSc1cc(-c2ccc(Br)cc2)oc(=O)c1Br
Rattus norvegicus [1]
  Protection: 28%
Rattus norvegicus [2]
  Protection: 72%
Rattus norvegicus [3]
  Protection: 18%
Rattus norvegicus [4]
  Protection: 15%
Rattus norvegicus [5]
  Protection: 47%

## CSc1cc(-c2ccc(Br)cc2)oc(=O)c1Cl
Rattus norvegicus [6]
  Protection: 30%
Rattus norvegicus [1]
  Protection: 26%
Rattus norvegicus [3]
  Protection: 40%
Rattus norvegicus [4]
  Protection: 19%
Rattus norvegicus [5]
  Protection: 30%

## CSc1cc(-c2cccnc2)oc(=O)c1C#N
Rattus norvegicus [1]
  Protection: 51%
Rattus norvegicus [2]
  Protection: 38%
Rattus norvegicus [3]
  Protection: 12%
Rattus norvegicus [4]
  Protection: 0%
Rattus norvegicus [5]
  Protection: 12%

## CSc1cc(-c2ccc(Cl)cc2)oc(=O)c1C(N)=O
Rattus norvegicus [1]
  Protection: 0%
Rattus norvegicus [2]
  Protection: 10%
Rattus norvegicus [3]
  Protection: 15%
Rattus norvegicus [4]
  Protection: 17%
Rattus norvegicus [5]
  Protection: 16%

## CSc1cc(-c2ccc(Cl)cc2)oc(=S)c1Br
Rattus norvegicus [1]
  Protection: 20%
Rattus norvegicus [2]
  Protection: 0%
Rattus norvegicus [3]
  Protection: 0%
Rattus norvegicus [4]
  Protection: 36%
Rattus norvegicus [5]
  Protection: 25%

## CSc1cc(-c2ccncc2)oc(=O)c1Br
Rattus norvegicus [1]
  Protection: 16%
Rattus norvegicus [2]
  Protection: 53%
Rattus norvegicus [3]
  Protection: 0%
Rattus norvegicus [4]
  Protection: 12%
Rattus norvegicus [5]
  Protection: 48%

## CSc1cc(-c2ccc(F)cc2)oc(=O)c1
Rattus norvegicus [1]
  Protection: 15%
Rattus norvegicus [2]
  Protection: 46%
Rattus norvegicus [3]
  Protection: 57%
Rattus norvegicus [4]
  Protection: 30%
Rattus norvegicus [5]
  Protection: 59%

## CSc1cc(-c2ccc(Cl)cc2)oc(=O)c1Br
Rattus norvegicus [1]
  Protection: 51%
Rattus norvegicus [2]
  Protection: 48%
Rattus norvegicus [3]
  Protection: 80%
Rattus norvegicus [4]
  Protection: 100%
Rattus norvegicus [5]
  Protection: 70%

## CSc1cc(-c2ccc(Cl)cc2)oc(=O)c1
Rattus norvegicus [6]
  Protection: 24%
Rattus norvegicus [1]
  Protection: 43%
Rattus norvegicus [3]
  Protection: 51%
Rattus norvegicus [4]
  Protection: 42%
Rattus norvegicus [5]
  Protection: 46%

## CCOC(=O)c1c(SC)c(C#N)c(-c2ccc(Br)cc2)oc1=O
Rattus norvegicus [1]
  Protection: 2%
Rattus norvegicus [2]
  Protection: 2%
Rattus norvegicus [3]
  Protection: 0%
Rattus norvegicus [4]
  Protection: 0%
Rattus norvegicus [5]
  Protection: 0%

## CSc1cc(-c2ccc(Br)cc2)oc(=O)c1C#N
Rattus norvegicus [1]
  Protection: 40%
Rattus norvegicus [2]
  Protection: 38%
Rattus norvegicus [3]
  Protection: 10%
Rattus norvegicus [4]
  Protection: 56%
Rattus norvegicus [5]
  Protection: 20%

## CCOC(=O)c1c(SC)cc(-c2ccc(Cl)cc2)oc1=O
Rattus norvegicus [6]
  Protection: 0%
Rattus norvegicus [1]
  Protection: 17%
Rattus norvegicus [3]
  Protection: 31%
Rattus norvegicus [4]
  Protection: 11%
Rattus norvegicus [5]
  Protection: 23%

## CSc1cc(-c2ccncc2)oc(=O)c1C#N
Rattus norvegicus [6]
  Protection: 0%
Rattus norvegicus [1]
  Protection: 0%
Rattus norvegicus [3]
  Protection: 0%
Rattus norvegicus [4]
  Protection: 12%
Rattus norvegicus [5]
  Protection: 0%

## CSc1cc(-c2ccco2)oc(=O)c1C#N
Rattus norvegicus [1]
  Protection: 15%
Rattus norvegicus [2]
  Protection: 0%
Rattus norvegicus [3]
  Protection: 72%
Rattus norvegicus [4]
  Protection: 19%
Rattus norvegicus [5]
  Protection: 71%

## CSc1cc(-c2cccs2)oc(=O)c1C#N
Rattus norvegicus [1]
  Protection: 100%
Rattus norvegicus [2]
  Protection: 10%
Rattus norvegicus [3]
  Protection: 74%
Rattus norvegicus [4]
  Protection: 33%
Rattus norvegicus [5]
  Protection: 37%

## CSc1cc(-c2ccc(Cl)cc2)oc(=O)c1Cl
Rattus norvegicus [6]
  Protection: 38%
Rattus norvegicus [1]
  Protection: 27%
Rattus norvegicus [3]
  Protection: 51%
Rattus norvegicus [4]
  Protection: 40%
Rattus norvegicus [5]
  Protection: 36%

## CSc1cc(-c2ccc(F)cc2)oc(=O)c1C#N
Rattus norvegicus [1]
  Protection: 0%
Rattus norvegicus [2]
  Protection: 46%
Rattus norvegicus [3]
  Protection: 31%
Rattus norvegicus [4]
  Protection: 15%
Rattus norvegicus [5]
  Protection: 20%

## CSc1cc(-c2ccc(Cl)cc2Cl)oc(=O)c1C#N
Rattus norvegicus [1]
  Protection: 65%
Rattus norvegicus [2]
  Protection: 61%
Rattus norvegicus [3]
  Protection: 45%
Rattus norvegicus [4]
  Protection: 33%
Rattus norvegicus [5]
  Protection: 37%

## CSc1cc(-c2ccc(F)cc2)oc(=O)c1Br
Rattus norvegicus [6]
  Protection: 49%
Rattus norvegicus [1]
  Protection: 0%
Rattus norvegicus [3]
  Protection: 0%
Rattus norvegicus [4]
  Protection: 43%
Rattus norvegicus [5]
  Protection: 0%

## CSc1cc(-c2cccs2)oc(=O)c1Br
Rattus norvegicus [1]
  Protection: 4%
Rattus norvegicus [2]
  Protection: 25%
Rattus norvegicus [3]
  Protection: 55%
Rattus norvegicus [4]
  Protection: 37%
Rattus norvegicus [5]
  Protection: 50%

## CSc1cc(-c2ccc(Cl)cc2)oc(=O)c1C#N
Rattus norvegicus [7]
  Protection: 48%
Rattus norvegicus [8]
  Protection: 74%
Rattus norvegicus [9]
  Protection: 90%
Rattus norvegicus [10]
  Protection: 53%
Rattus norvegicus [1]
  Protection: 51%
Rattus norvegicus [11]
  Protection: 73%
Rattus norvegicus [12]
  Protection: 56%
Rattus norvegicus [13]
  Protection: 68%
Rattus norvegicus [14]
  Protection: 54%
Rattus norvegicus [2]
  Protection: 59%
Rattus norvegicus [15]
  Protection: 73%
Rattus norvegicus [16]
  Protection: 58%
Rattus norvegicus [17]
  Protection: 24%
Rattus norvegicus [18]
  Protection: 58%
Rattus norvegicus [19]
  Protection: 57%
Rattus norvegicus [20]
  Protection: 67%
Rattus norvegicus [3]
  Protection: 69%
Rattus norvegicus [21]
  Protection: 86%
Rattus norvegicus [22]
  Protection: 70%
Rattus norvegicus [23]
  Protection: 76%
Rattus norvegicus [4]
  Protection: 65%
Rattus norvegicus [24]
  Protection: 59%
Rattus norvegicus [5]
  Protection: 68%
Rattus norvegicus [25]
  Protection: 57%
Rattus norvegicus [26]
  Protection: 81%
Rattus norvegicus [27]
  Protection: 40%
Rattus norvegicus [28]
  Protection: 62%
Rattus norvegicus [29]
  Protection: 69%
Rattus norvegicus [30]
  Protection: 34%
Rattus norvegicus [31]
  Protection: 66%

## CCOC(=O)c1c(SC)c(C#N)c(-c2ccc(Cl)cc2)oc1=O
Rattus norvegicus [1]
  Protection: 16%
Rattus norvegicus [2]
  Protection: 30%
Rattus norvegicus [3]
  Protection: 19%
Rattus norvegicus [4]
  Protection: 0%
Rattus norvegicus [5]
  Protection: 14%

## CSc1cc(-c2ccc(Cl)cc2)oc(=S)c1Cl
Rattus norvegicus [1]
  Protection: 12%
Rattus norvegicus [2]
  Protection: 25%
Rattus norvegicus [3]
  Protection: 26%
Rattus norvegicus [4]
  Protection: 10%
Rattus norvegicus [5]
  Protection: 29%

## COc1cc([C@H]2Oc3cc([C@H]4Oc5cc(O)cc(O)c5C(=O)[C@@H]4O)ccc3O[C@@H]2CO)ccc1O [SILYBIN A]
Rattus norvegicus [7]
  Protection: 59%
Rattus norvegicus [8]
  Protection: 64%
Rattus norvegicus [6]
  Protection: 43.25%
Rattus norvegicus [9]
  Protection: 67%
Rattus norvegicus [10]
  Protection: 49%
Rattus norvegicus [1]
  Protection: 38.81%
Rattus norvegicus [11]
  Protection: 50%
Rattus norvegicus [12]
  Protection: 77%
Rattus norvegicus [13]
  Protection: 33%
Rattus norvegicus [14]
  Protection: 60%
Rattus norvegicus [2]
  Protection: 61%
Rattus norvegicus [15]
  Protection: 46%
Rattus norvegicus [16]
  Protection: 51%
Rattus norvegicus [17]
  Protection: 62%
Rattus norvegicus [18]
  Protection: 62%
Rattus norvegicus [19]
  Protection: 65%
Rattus norvegicus [20]
  Protection: 64%
Rattus norvegicus [3]
  Protection: 47.25%
Rattus norvegicus [21]
  Protection: 47%
Rattus norvegicus [22]
  Protection: 57%
Rattus norvegicus [23]
  Protection: 45%
Rattus norvegicus [4]
  Protection: 47%
Rattus norvegicus [24]
  Protection: 48%
Rattus norvegicus [5]
  Protection: 50.14%
Rattus norvegicus [25]
  Protection: 51%
Rattus norvegicus [26]
  Protection: 49%
Rattus norvegicus [27]
  Protection: 49%
Rattus norvegicus [28]
  Protection: 59%
Rattus norvegicus [29]
  Protection: 78%
Rattus norvegicus [30]
  Protection: 43%
